Laboratory results from article PMC11062922 (Nature Chemical Biology, 2023).

Assays:
[1] = system: endogenous kinases and other proteins enriched by Kinobeads from mixed lysates of K-562, COLO-205, MV-4-11, SK-N-BE(2) and OVCAR-8; assay: Kinobeads competition binding profiling, two doses (100 nM and 1 µM); design: species or system human; conditions: for selectivity in the Kinobeads assay (CATDSmost potent): in words; for detection of the designated target by Kinobeads: previous chemical probes;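 for all read-outs here: inhibitor preincubated 45 min at 4 °C in cell lysate, then bead pulldown. Bound protein quantified by label-free mass spectrometry relative to DMSO vehicle control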
ACOX1 = biological target: T1, ACOX1 (Homo sapiens, UniProt Q15067); assay: Kinobeads two-dose competition binding: ACOX1; conditions: sheet CATDS matrix 2; Gene Name ACOX1;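 note: competition of compounds with immobilized broad-spectrum kinase inhibitor beads in cell lysate at 100 and 1,000 nM, 45 min at 4 °C, bead-bound protein quantified by label-free MS versus DMSO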
T1 construct: endogenous in cells
T1 sequence (Q15067 1-660): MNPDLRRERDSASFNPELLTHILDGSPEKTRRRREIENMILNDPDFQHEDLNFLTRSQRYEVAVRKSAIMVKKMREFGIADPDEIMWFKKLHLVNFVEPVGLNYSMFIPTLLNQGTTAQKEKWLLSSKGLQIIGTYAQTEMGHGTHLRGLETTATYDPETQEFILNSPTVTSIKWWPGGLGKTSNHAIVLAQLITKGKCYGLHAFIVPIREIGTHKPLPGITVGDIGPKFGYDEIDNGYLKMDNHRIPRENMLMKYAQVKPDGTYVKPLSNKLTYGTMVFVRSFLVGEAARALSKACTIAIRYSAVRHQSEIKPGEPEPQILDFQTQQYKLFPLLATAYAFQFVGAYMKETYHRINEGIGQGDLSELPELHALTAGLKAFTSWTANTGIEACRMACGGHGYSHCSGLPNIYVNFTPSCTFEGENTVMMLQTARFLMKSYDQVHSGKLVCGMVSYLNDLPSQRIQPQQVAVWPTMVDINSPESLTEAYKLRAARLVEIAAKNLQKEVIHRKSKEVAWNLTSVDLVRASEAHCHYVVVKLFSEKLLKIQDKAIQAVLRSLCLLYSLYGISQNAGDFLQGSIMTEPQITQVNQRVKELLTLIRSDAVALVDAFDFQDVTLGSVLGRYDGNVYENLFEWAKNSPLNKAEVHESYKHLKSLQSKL

AAK1 = biological target: T2, AAK1 (Homo sapiens, UniProt Q2M2I8); assay: Kinobeads two-dose competition binding: AAK1; conditions: for CATDS: sheet CATDS matrix 2, Gene Name AAK1; for potency estimated from few doses: sheet "Kinobeads Drugmatrix - all", unit inferred, same values below 1000 recur in sheet "nanomolar", read-out: Kinobeads Drugmatrix - all: apparent Kd, AAK1;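 for all read-outs here: kinobeads competition pulldown from cell lysate, compound preincubated 45 min at 4 °C, bead-bound protein measured by label-free mass spectrometry against DMSO vehicle control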
T2 construct: to maximize the representation of endogenous proteins; endogenous in cells
T2 sequence (Q2M2I8 whole entry): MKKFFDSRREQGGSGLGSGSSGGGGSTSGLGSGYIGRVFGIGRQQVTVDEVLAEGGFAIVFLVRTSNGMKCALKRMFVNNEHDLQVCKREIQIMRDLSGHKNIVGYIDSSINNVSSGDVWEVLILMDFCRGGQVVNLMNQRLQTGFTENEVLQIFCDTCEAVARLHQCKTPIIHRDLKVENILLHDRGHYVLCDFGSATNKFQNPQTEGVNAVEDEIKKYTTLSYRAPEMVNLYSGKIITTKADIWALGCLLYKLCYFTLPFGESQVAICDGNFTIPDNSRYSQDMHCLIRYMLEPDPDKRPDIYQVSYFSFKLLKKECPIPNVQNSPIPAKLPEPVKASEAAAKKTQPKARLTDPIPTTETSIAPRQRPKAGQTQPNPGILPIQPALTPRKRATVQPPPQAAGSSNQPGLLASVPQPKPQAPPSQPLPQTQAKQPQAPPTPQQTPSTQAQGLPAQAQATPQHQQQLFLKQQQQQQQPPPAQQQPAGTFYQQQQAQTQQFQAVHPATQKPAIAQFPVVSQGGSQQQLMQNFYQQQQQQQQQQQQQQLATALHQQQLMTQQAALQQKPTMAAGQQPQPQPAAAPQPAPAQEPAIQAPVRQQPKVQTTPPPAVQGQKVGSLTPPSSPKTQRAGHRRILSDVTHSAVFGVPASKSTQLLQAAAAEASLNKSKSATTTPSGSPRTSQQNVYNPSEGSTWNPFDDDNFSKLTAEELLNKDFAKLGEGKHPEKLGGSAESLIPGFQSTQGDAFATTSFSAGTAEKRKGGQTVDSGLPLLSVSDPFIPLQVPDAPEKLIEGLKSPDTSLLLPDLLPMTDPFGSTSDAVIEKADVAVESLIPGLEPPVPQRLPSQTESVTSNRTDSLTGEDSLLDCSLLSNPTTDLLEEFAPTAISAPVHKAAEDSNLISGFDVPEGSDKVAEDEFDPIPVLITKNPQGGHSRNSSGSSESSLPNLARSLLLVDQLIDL

ABL1 [2] = biological target: T3, ABL1 (Homo sapiens, UniProt P00519); assay: Kinobeads two-dose competition binding: ABL1; conditions: sheet CATDS matrix 2; Gene Name ABL1
T3 sequence (P00519 28-1130 limits assumed): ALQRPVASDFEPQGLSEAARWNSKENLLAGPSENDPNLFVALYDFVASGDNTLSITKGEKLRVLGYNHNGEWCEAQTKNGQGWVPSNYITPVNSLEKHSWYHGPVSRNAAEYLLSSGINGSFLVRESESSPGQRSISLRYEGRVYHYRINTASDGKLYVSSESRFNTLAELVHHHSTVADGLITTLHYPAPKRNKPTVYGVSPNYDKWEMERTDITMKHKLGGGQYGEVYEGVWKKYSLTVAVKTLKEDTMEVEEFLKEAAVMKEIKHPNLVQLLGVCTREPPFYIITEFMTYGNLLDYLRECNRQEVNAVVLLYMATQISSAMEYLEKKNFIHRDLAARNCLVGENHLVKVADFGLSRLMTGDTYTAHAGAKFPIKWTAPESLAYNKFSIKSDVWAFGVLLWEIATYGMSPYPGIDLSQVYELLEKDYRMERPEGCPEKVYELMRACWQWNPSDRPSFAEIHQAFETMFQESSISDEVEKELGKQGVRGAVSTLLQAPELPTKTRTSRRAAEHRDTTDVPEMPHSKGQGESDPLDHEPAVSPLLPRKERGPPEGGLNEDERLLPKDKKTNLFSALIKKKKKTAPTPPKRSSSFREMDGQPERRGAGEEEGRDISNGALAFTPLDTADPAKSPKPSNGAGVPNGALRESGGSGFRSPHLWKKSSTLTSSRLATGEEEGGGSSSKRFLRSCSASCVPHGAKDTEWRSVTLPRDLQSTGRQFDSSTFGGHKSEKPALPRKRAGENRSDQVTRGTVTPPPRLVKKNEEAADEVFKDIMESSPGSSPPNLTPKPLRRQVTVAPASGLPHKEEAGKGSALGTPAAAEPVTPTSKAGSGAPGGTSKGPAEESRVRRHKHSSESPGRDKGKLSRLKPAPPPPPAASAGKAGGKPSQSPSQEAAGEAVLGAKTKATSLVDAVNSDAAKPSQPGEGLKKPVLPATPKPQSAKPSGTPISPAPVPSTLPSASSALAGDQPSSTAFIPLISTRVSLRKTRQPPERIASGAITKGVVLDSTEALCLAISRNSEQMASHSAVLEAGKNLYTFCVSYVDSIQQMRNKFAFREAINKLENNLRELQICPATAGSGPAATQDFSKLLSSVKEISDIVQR

ABL2 [3] = biological target: T4, ABL2 (Homo sapiens, UniProt P42684); assay: Kinobeads two-dose competition binding: ABL2; conditions: sheet CATDS matrix 2; Gene Name ABL2
T4 construct: endogenous in cells
T4 sequence (P42684 whole entry): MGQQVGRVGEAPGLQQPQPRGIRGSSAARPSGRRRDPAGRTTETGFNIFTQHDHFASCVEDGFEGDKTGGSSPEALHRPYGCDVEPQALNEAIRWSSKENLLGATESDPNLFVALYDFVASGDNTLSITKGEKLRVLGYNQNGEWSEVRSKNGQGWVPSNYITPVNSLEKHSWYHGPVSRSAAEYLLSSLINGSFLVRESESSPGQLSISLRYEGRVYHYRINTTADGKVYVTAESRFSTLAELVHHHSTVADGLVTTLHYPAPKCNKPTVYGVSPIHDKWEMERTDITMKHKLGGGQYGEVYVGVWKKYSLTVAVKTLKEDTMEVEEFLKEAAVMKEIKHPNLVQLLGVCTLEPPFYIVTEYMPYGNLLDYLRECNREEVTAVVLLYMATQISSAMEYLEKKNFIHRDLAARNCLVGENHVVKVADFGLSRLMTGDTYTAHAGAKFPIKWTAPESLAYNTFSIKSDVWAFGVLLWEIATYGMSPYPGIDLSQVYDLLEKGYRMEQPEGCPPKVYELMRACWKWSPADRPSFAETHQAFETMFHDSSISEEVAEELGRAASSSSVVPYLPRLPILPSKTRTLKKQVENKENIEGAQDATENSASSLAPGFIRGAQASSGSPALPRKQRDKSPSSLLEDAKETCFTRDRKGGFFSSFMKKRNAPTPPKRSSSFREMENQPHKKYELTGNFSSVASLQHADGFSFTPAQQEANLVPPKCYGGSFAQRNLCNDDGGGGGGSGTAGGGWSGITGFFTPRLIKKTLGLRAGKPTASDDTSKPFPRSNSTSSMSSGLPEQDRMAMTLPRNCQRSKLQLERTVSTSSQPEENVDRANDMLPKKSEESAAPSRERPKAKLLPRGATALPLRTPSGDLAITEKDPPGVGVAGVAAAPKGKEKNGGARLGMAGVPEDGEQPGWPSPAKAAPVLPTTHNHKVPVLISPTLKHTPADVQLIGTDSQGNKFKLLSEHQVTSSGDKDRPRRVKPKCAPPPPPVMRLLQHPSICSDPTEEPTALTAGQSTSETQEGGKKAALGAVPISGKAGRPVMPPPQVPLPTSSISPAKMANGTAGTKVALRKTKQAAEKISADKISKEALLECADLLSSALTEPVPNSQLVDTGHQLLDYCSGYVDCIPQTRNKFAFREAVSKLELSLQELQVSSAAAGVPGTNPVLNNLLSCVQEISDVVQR

ACAD11 = biological target: T5, ACAD11 (Homo sapiens, UniProt Q709F0); assay: Kinobeads two-dose competition binding: ACAD11; conditions: sheet CATDS matrix 2; Gene Name ACAD11
T5 construct: endogenous in cells
T5 sequence (Q709F0 1-780): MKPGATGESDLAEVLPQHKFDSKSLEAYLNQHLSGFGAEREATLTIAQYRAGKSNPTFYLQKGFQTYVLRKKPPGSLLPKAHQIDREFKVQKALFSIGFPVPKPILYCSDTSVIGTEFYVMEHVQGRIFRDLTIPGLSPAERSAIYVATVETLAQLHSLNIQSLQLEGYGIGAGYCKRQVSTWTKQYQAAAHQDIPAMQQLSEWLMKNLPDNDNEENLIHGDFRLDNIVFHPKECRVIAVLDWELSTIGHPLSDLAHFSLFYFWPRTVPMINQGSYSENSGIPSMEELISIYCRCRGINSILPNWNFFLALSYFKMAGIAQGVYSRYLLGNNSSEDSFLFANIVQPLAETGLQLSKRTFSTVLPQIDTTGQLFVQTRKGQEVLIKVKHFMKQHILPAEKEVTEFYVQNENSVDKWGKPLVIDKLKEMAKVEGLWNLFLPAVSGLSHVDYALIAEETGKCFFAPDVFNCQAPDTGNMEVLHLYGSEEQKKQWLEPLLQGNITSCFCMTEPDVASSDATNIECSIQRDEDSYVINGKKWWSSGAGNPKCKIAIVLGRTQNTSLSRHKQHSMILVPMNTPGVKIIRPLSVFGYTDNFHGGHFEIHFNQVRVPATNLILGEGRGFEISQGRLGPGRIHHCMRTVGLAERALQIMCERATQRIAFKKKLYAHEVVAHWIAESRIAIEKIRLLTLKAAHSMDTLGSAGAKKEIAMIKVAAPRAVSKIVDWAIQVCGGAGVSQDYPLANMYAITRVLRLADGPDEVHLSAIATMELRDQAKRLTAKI

ABL1 [4] = biological target: T3, ABL1; assay: Kinobeads two-dose competition binding: ABL1; conditions: sheet "Kinobeads Drugmatrix - all"; unit inferred; read-out: Kinobeads Drugmatrix - all: apparent Kd, ABL1
ABL2 [5] = biological target: T4, ABL2; assay: Kinobeads two-dose competition binding: ABL2; conditions: sheet "Kinobeads Drugmatrix - all"; unit inferred; read-out: Kinobeads Drugmatrix - all: apparent Kd, ABL2

Row | SMILES | CATDS (ACOX1) | CATDS (AAK1) | CATDS (ABL1 [2]) | CATDS (ABL2 [3]) | CATDS (ACAD11) | potency estimated from few doses (ABL1 [4]) [nM] | potency estimated from few doses (ABL2 [5]) [nM] | further results
1 | COC[C@@H](C)N[C@H]1CC[C@H](Nc2cc(-c3cccc(NCC4(C#N)CCOCC4)n3)c(Cl)cn2)CC1 [NVP-2, reference compound] | – | – | – | – | – | – | – | detection of the designated target by Kinobeads [1]: failed to reveal their targets
2 | CC(C)(C)S(=O)(=O)c1ccc2nccc(Nc3n[nH]c4ccc(F)cc34)c2c1 [GSK583, reference compound] | – | – | – | – | – | – | – | chemical probe criteria (Kdapp < 1 µM and CATDSmost potent > 0.5) ([1]; Kinobeads data): fulfilled our criteria
3 | CN(C)C/C=C/C(=O)Nc1ccc(C(=O)N2CCC[C@@H](Nc3ncc(Cl)c(-c4c[nH]c5ccccc45)n3)C2)cc1 [THZ531, reference compound] | – | – | – | – | – | – | – | detection of the designated target by Kinobeads [1]: failed to reveal their targets
4 | O=C(NCCO)c1cccc(-c2cc(Nc3ccc(OC(F)(F)F)cc3)ncn2)c1 [GNF-5, reference compound] | – | – | – | – | – | – | – | detection of the designated target by Kinobeads [1]: failed to reveal their targets
5 | Clc1cc(Cl)cc(Nc2ccnc(Nc3cc(Cl)cc(Cl)c3)n2)c1 [GSK175726A] | 0 | 0.01178 | 0.026 | 0.1551 | 0 | 83.2 | 7.68 | potency estimated from few doses (AAK1): 460 nM
6 | CN1C(=O)c2ccccc2N(C)c2nc(Nc3cnn(C4CCNCC4)c3)ncc21 [XMD-17-51, reference compound] | – | – | – | – | – | – | – | number of targets in the Kinobead assay ([1]; two-dose Kinobeads): ~50
7 | O=C(O[C@H]1CN[C@H](C#Cc2cc3ncnc(Nc4ccc(OCc5cccc(F)c5)c(Cl)c4)c3s2)C1)N1CCOCC1 [GW869810X] | – | – | – | – | – | – | – | selectivity in the Kinobeads assay (CATDSmost potent) [1]: very selective
8 | CC(C)c1nc(-c2cccc(NS(=O)(=O)c3ccccc3)c2)c(-c2ccnc(Nc3ccc4c(c3)CN(C)CC4)n2)s1 [GSK1649598A] | 0 | 0 | 0.02015 | 0.03972 | 0 | 368 | 93.8 | –
9 | CCC(=O)Nc1cccc(Oc2nc(Nc3ccc(N4CCN(C)CC4)cc3OC)ncc2Cl)c1 [WZ4003, reference compound] | – | – | – | – | – | – | – | selectivity in the Kinobeads assay (CATDSmost potent) [1]: poor selectivity
10 | CN1CCc2ccc(Nc3nccc(-c4c(-c5cccc(NC(=O)c6c(F)cccc6F)c5)nc5ccccn45)n3)cc2C1 [GSK1010829B] | 0 | 0 | 0 | 0.05238 | 0 | > 1000 | 515 | –
11 | CC(C)c1nc(-c2cccc(NS(=O)(=O)c3c(F)cccc3F)c2F)c(-c2ccnc(Nc3ccc(N4CCOCC4)nc3)n2)s1 [GSK2008607A] | 0 | 0 | 0.02525 | 0.07581 | 0 | 706 | 101 | –

Now from value to compound, other results behind:

Row | CATDS (ACOX1) | CATDS (AAK1) | CATDS (ABL1 [2]) | CATDS (ABL2 [3]) | CATDS (ACAD11) | potency estimated from few doses (ABL1 [4]) [nM] | potency estimated from few doses (ABL2 [5]) [nM] | SMILES | further results
12 | 0 | 0 | 0 | 0 | 0 | – | – | CCOc1cc(C(=O)N2CCC(N3CCN(C)CC3)CC2)ccc1Nc1ncc2c(n1)N(C1CCCC1)c1ccccc1C(=O)N2C [ERK5-IN-1, reference compound] | selectivity in the Kinobeads assay (CATDSmost potent) [1]: very selective
13 | 0 | 0 | 0.01362 | 0.01375 | 0 | 401 | 389 | CNC(=O)c1ccccc1Nc1nc(Nc2cccc(CS(C)(=O)=O)c2)ncc1C [GSK1520489A] | –
14 | 0 | 0.01049 | 0.01209 | 0.008409 | 0 | 112 | 334 | COc1ccc(Nc2ncc(C#N)c(Nc3ccccc3C(N)=O)n2)cc1N1CCN(C)CC1 [GSK1558669A] | potency estimated from few doses (AAK1): 164 nM
